Measurements from publication PMC3404012, “N-Terminally Glutamate-Substituted Analogue of Gramicidin A as Protonophore and Selective Mitochondrial Uncoupler” (PLoS ONE, 2012).

Key:
[1] = test system: rat kidney cell culture (renal tubular epithelium cells); type: cell-based
Experimental: (§1) In subsequent series of experiments, the uncoupling action of [Glu1]gA was tested in rat kidney cell culture loaded with the potential sensitive dye tetramethylrhodamine ethyl ester (TMRE). […] By contrast, the parent gA depolarized mitochondria in cells at substantially higher concentrations starting from 0.1 mg/ml (Fig. 2C). […] In particular, treatment with 50 µg/ml gA caused about 80% cell death, while [Glu1]gA provoked only about 15% cell death. […] The increased effective concentrations of the [Glu1]gA in cell culture with respect to those with isolated mitochondria (Fig. 1) could be attributed to poor peptide permeation through plasma membrane.
Confocal images of cultured renal cells loaded with TMRE in control (A) and after treatment with 0.01 mg/ml [Glu1]gA (B). Diagram (C) presents the mean intensity of TMRE fluorescence through 10 confocal images for each [Glu1]gA (solid bars) or gA (hatched bars) concentration.
Kidneys were excised aseptically from 3–7 day old rats, then homogenized and placed in balanced Hanks solution at pH 7.4. After several washes the dispensed tissue was placed in 0.1% collagenase and incubated for 20–30 min at 37°C. Large pieces were removed, and cells were sedimented by gentle centrifugation (50 g) for 3 min. The pellet was resuspended in DMEM/F-12 1:1 containing 10% fetal calf serum (FCS) and seeded in culture plates and glass-bottom dishes. Cells were cultivated in a CO2 (5%) incubator for 1–2 days before the experiments. The gA or [Glu1]gA solution was added to the cultured epithelial cells to appropriate concentration and incubated for 10 min at 37°C in DMEM/F-12 medium containing 10 mM Hepes-NaOH. Next, cells were incubated with 100 nM TMRE (Invitrogen, USA) or 1 µM Lysotracker Green (Invitrogen, USA) for 30 min followed by washing in DMEM/F-12. Then renal tubular epithelial cells were imaged with an LSM510 inverted confocal microscope (Carl Zeiss Inc., Jena, Germany). Analysis of fluorochrome incorporation was performed in glass-bottom dishes (MatTek Corp., USA) with excitation at 488 and 543 nm and emission collected at 510–530 and 560–590 nm, for Lysotracker and TMRE, correspondingly. To minimize the contribution of photo-induced mitochondria/cell damage to the relative fluorescence intensities, image analysis was performed on the average of the first four scans only. Images were processed using ImageJ software (NIH, Bethesda, MD, USA).

rat liver mitochondria = assay: Respiration of isolated mitochondria (Clark-type oxygen electrode); settings: 25°C, pH 7.4, 100 nM = 200 nanogram/ml, data not shown
[2] = test system: rat liver mitochondria (inner mitochondrial membrane potential); assay: Mitochondrial membrane potential measured by safranine O fluorescence; settings: for decrease of mitochondrial membrane potential: isolated rat liver mitochondria 0.4 mg/ml protein, 5 mM succinate + 1 µM rotenone, 5 nM (about 10 nanogram/ml) peptide, safranine O 10 µM, pH 7.4; for series of the uncoupling potency (relative drop in membrane potential, concentration dependence): isolated rat liver mitochondria, measured at 300 s after peptide addition, safranine O
Experimental: To assess the effect of gramicidin derivatives on the mitochondrial membrane potential, we assayed the latter with the potential-dependent dye safranine O. The fluorescence of this dye (at a high concentration) is known to drop with increasing the mitochondrial membrane potential and rise upon the addition of protonophores [42], [47].
Control, no other additions. gA, [Glu1]gA, [Glu3]gA, [Lys1]gA, and [Lys3]gA show traces after the addition of 5 nM (i.e. about 10 nanogram/ml) of a corresponding peptide at t = 0 s. Trace “excess [Glu1]gA” was measured with 1 µg/ml peptide. Panel B. Dose dependence of the effect of [Glu1]gA on mitochondrial membrane potential.
Experiments were performed on outbred white male rats (180–200 g) fed ad libitum. […] Rat liver mitochondria were isolated by differential centrifugation [60] in a medium containing 250 mM sucrose, 10 mM MOPS, 1 mM EGTA, and bovine serum albumin (0.1 mg/ml), pH 7.4. The final washing was preformed in the medium of the same composition. Protein concentration was determined using bicinchoninic acid as described in [61].
Safranine O (10 µM) was used as a membrane potential probe [42]. Fluorescence intensity at 580 nm (excitation at 520 nm) was measured with a Panorama Fluorat 02 spectrofluorimeter (Lumex, Russia). The medium for measurements contained 300 mM sucrose, 20 mM MOPS, 0.5 mM EDTA, 0.5 mg/ml BSA, pH 7.4. Mitochondrial protein concentration was 0.4 mg/ml.

[3] = Single-channel recordings on planar bilayer lipid membrane; settings: DPhPC/decane BLM, 100 mM HCl; for single-channel conductance: from current histograms
Experimental: Proton channels formed by gA can be observed by measuring electric current across a planar bilayer lipid membrane (BLM), if the experiments are performed in the acidic pH range [19], [20], [26], [50]. Figure 6 presents typical recordings of fluctuations of transmembrane current induced by gA and [Glu1]gA (panels A and D of Fig. 6) which were obtained under the same conditions. The single-channel conductance of [Glu1]gA (150 pS) was close to that of gA (140 pS) as judged from the current histograms (panels B and E), while the single-channel lifetime of the analogue (about 16 ms as estimated from the exponential fit to open channel duration histogram, panel F of Fig. 6) was much shorter than that of gA (116 ms, panel C).
Figure 6 Single-channel recordings (A, D) and the corresponding current histograms (B, E) of gramicidin A ([…], A, B, and C) and [Glu1]gA (2 nanogram/ml, D, E, and F) at a voltage of 100 mV applied to the DPhPC/decane membrane. The solution was 100 mM HCl. (C, F) Open state duration histograms fitted by a single exponential with a time constant of 116 ms (C) and 16 ms (F). The records were filtered at 100 Hz (A, B, and C) or 1000 Hz (D, E, and F).
(§2) Planar bilayer lipid membranes (BLM) were formed from a 2% solution of diphytanoylphosphatidylcholine (DPhPC) (Avanti Polar Lipids, Alabaster, AL) in n-decane on a hole in a Teflon partition (0.5-mm diameter) separating two compartments of a cell containing aqueous buffer solutions [64].The electric current (I) was recorded under voltage-clamp conditions. Voltage was applied to BLMs with Ag-AgCl electrodes placed directly into the cell. The current measured by means of a patch-clamp amplifier (Warner Instruments, Hamden, CT, model BC-525C) was digitized using an NI-DAQmx (National Instruments, Austin, TX) and analyzed with a personal computer with the use of WinWCP Strathclyde Electrophysiology Software designed by J. Dempster (University of Strathclyde, UK).

[4] = test system: lysosomes of rat kidney cells; assay: Lysosome integrity and pH gradient by Lysotracker Green; type: cell-based; settings: 0.1 mg/ml peptide, 1 µM Lysotracker Green
Experimental: In further experiments, we tested the interaction of [Glu1]gA with lysosomes of rat kidney cells by using the dye Lysotracker Green known to accumulate in highly acidic interior of lysosomes. […] Thus, [Glu1]gA appeared to interact specifically with mitochondrial membranes leading to their partial depolarization.
Figure 4 Micrographs of rat kidney cell culture loaded with Lysotracker Green in the absence (A), and in the presence of 0.1 mg/ml (B) of [Glu1]gA.
Kidneys were excised aseptically from 3–7 day old rats, then homogenized and placed in balanced Hanks solution at pH 7.4. After several washes the dispensed tissue was placed in 0.1% collagenase and incubated for 20–30 min at 37°C. Large pieces were removed, and cells were sedimented by gentle centrifugation (50 g) for 3 min. The pellet was resuspended in DMEM/F-12 1:1 containing 10% fetal calf serum (FCS) and seeded in culture plates and glass-bottom dishes. Cells were cultivated in a CO2 (5%) incubator for 1–2 days before the experiments. The gA or [Glu1]gA solution was added to the cultured epithelial cells to appropriate concentration and incubated for 10 min at 37°C in DMEM/F-12 medium containing 10 mM Hepes-NaOH. […] To minimize the contribution of photo-induced mitochondria/cell damage to the relative fluorescence intensities, image analysis was performed on the average of the first four scans only. […]

[5] = Dissipation of pH gradient in pyranine-loaded liposomes; settings: 2 µg/ml peptide
Experimental: Figure 5 Dissipation of the pH gradient on membranes of pyranine-loaded liposomes by gA and [Glu1]gA (both 2 µg/ml). Inner liposomal pH was estimated from pyranine fluorescence intensity measured at 505 nm upon excitation at 455 nm. Nigericin (1 µM) was added at 400–420 s to equilibrate the pH. Control, a record without peptides.
The lumenal pH of the liposomes was assayed with pyranine as described in [11] by a slightly modified procedure of [63]. To prepare pyranine-loaded liposomes, lipids (5 mg egg yolk phosphatidylcholine and 1 mg cholesterol) in a chloroform suspension were dried in a round-bottom flask under a stream of nitrogen. The lipids were then resuspended in buffer (100 mM KCl, 20 mM MES, 20 mM MOPS, 20 mM Tricine titrated with KOH to pH 6.0) containing 0.5 mM pyranine. The suspension was vortexed and then freeze-thawed three times. Unilamellar liposomes were prepared by extrusion through 0.1-µm-pore size Nucleopore polycarbonate membranes using an Avanti Mini-Extruder. The unbound pyranine was then removed by passage through a Sephadex G-50 coarse column equilibrated with the same buffer solution. […] The pH was estimated from the intensities of fluorescence measured at 505 nm upon excitation at 455 nm, as monitored with the Panorama Fluorat 02 spectrofluorimeter. At the end of each recording, 1 µM nigericin was added to dissipate the remaining pH gradient.

[6] = Induction of electrical current across planar BLM with and without liposomes; settings: for effect of liposomes on induction of BLM current: liposomes 1 µg/ml DPhPC, peptide and liposomes at one side, gA 2 nanogram/ml, [Glu1]gA 200 nanogram/ml, 100 mM KCl, 10 mM Tris, 10 mM MES, pH 7.0, 50 mV
Excerpt: The difference in efficacy of gA and [Glu1]gA described here in a variety of systems could be associated with different abilities of the peptides to redistribute between membrane structures and/or their diverse permeability through membranes. To cause a reduction of an electrical potential difference across the inner mitochondrial membrane, peptide molecules must penetrate through the outer membrane in the case of isolated mitochondria, and additionally through the plasma membrane in the case of cells. While encountering with a series of membrane structures, e.g. endosomes, on their way from the plasma to the mitochondrial membrane, peptides may undergo numerous cycles of membrane binding and desorption. To study such a process in a model system, we measured the effect of liposome addition on the time course of the induction of electrical current across a planar BLM by gA and [Glu1]gA. In these experiments we added liposomes and peptides at one side of BLM in order to mimic the addition of the peptides to mitochondria and cells.
Figure 7 Effect of liposomes (1 µg/ml DPhPC) on the induction of electrical current on planar lipid bilayer by gA (2 nanogram/ml, panel A) and [Glu1]gA (200 nanogram/ml, panel B). The peptides and liposomes were added at one side of the membrane. The solution was 100 mM KCl, 10 mM Tris, 10 mM MES, pH = 7.0, BLM voltage was 50 mV.
as §2, with “Voltage was applied to BLMs with Ag-AgCl electrodes placed directly into the cell.” left out

[7] = test system: cultured renal tubular cells; assay: MTT cell viability test; type: cell-based; settings: 24 h
Experimental: as §1
Figure 3 Viability of cultured renal cells according to the MTT test after 24 h treatment with appropriate concentration of [Glu1]gA or gA in culture medium without serum. Experiments were performed 2 times in which 10 wells per each concentration were analyzed.
Cell viability was evaluated by a widely used methyl thiazol tetrazolium (MTT) test. […] Then the dye solution was removed, 50 µl DMSO per well was added and absorbance at 540 nm was measured. Experiments were performed twice in which 10 wells per each concentration were analyzed.

HCO-EGALAVVVWLWLWLW-NH(CH2)2OH [[Glu1]gA]
effective concentrations in cells relative to isolated mitochondria ([1]; cells versus isolated mitochondria): higher in cells than in mitochondria by three orders of magnitude
depolarizing concentrations in cell culture relative to gA ([1]; mitochondria in cell culture): by an order of magnitude lower than those of gA
decrease in the mitochondrial membrane potential (TMRE fluorescence) ([1]; rat kidney cell culture, 10 µg/ml (about 5 µM) peptide, 10 min at 37°C, then 100 nM TMRE 30 min): more than a two-fold decrease
depolarization of mitochondria in cells ([1]; rat kidney cells, 0.1 mg/ml peptide): maximal depolarization of mitochondria
concentration stimulating mitochondrial respiration up to the level of fully uncoupled respiration (rat liver mitochondria): higher than 100 nM
decrease of mitochondrial membrane potential [2]: most efficient in decreasing the mitochondrial membrane potential
series of the uncoupling potency (relative drop in membrane potential, concentration dependence) [2]: [Glu1]gA > = gA > [Glu3]gA > [Lys3]gA > [Lys1]gA
single-channel conductance ([3]; 100 mV): 150 pS
concentration required to observe single channels, relative to gA ([3]; symmetrical addition): much higher (approx. by two orders of magnitude)
lysosome integrity and pH gradient across lysosomal membranes (Lysotracker fluorescence intensity) [4]: No change
rate of pH gradient dissipation (enhancement of liposome-entrapped pyranine fluorescence) [5]: slower than that provoked by the parent peptide gA
effect of liposomes on induction of BLM current [6]: accelerated many fold the induction of the current
concentration required to induce current similar to that of gA, one-sided addition ([6]; planar BLM, peptide added from one side of the membrane): about two orders of magnitude higher

HCO-KGALAVVVWLWLWLW-NH(CH2)2OH [[Lys1]gA]
series of the uncoupling potency (relative drop in membrane potential, concentration dependence) [2]: [Glu1]gA > = gA > [Glu3]gA > [Lys3]gA > [Lys1]gA

HCO-VGELAVVVWLWLWLW-NH(CH2)2OH [[Glu3]gA]
series of the uncoupling potency (relative drop in membrane potential, concentration dependence) [2]: [Glu1]gA > = gA > [Glu3]gA > [Lys3]gA > [Lys1]gA

HCO-VGKLAVVVWLWLWLW-NH(CH2)2OH [[Lys3]gA]
series of the uncoupling potency (relative drop in membrane potential, concentration dependence) [2]: [Glu1]gA > = gA > [Glu3]gA > [Lys3]gA > [Lys1]gA

gramicidin A [gA, reference compound]
concentration from which mitochondria in cells are depolarized ([1]; rat kidney cell culture, TMRE): ≥ 0.1 mg/mL
decrease of mitochondrial membrane potential [2]: most efficient in decreasing the mitochondrial membrane potential
series of the uncoupling potency (relative drop in membrane potential, concentration dependence) [2]: [Glu1]gA > = gA > [Glu3]gA > [Lys3]gA > [Lys1]gA
single-channel lifetime (open state duration, single-exponential time constant) ([3]; 100 mV): 116 ms
single-channel conductance ([3]; 100 mV): 140 pS
cell death (MTT) ([7]; 50 µg/ml peptide, DMEM/F12 without serum, 2 experiments, 10 wells per concentration): about 80%
concentration limit to which certain toxicity is seen (MTT) ([7]; medium without serum): ≥ 100 ng/mL
effect of liposomes on induction of BLM current [6]: somewhat slower in the presence of liposomes
